Series [1] relates to primary cultured retinal cells. Description: Cell viability (MTS assay) of primary cultured retinal cells. To be noted: 24 hours. On the technique in general: Formazan colour is commonly taken as a measure of viable cells.
Experimental: Retinas were isolated by eye enucleation from C57BL/6 mice (Orient Bio, Seoul, Korea) and dissociated with papain for 15 minutes at 37° C. Neuronal basal medium (Gibco) containing ovomucoid (Sigma Aldrich) and DNase (Sigma Aldrich) was added, and cells were centrifuged at 100×g for 8 min. Cells were resuspended in the above medium without DNase. Retinal cells were maintained in neurobasal medium with L-glutamine and B27 supplement (Gibco). Retinal cells were identified by immunostaining for rhodopsin (a marker for membrane photoreceptor cells) and glial fibrillary acidic protein (Muller glia). The cultured cells contained 65% rod photoreceptor cells and 28% Muller glia. Retinal cells were plated (1*10^4 cells/well) in 96-well plates for 24 hours, and the medium was exchanged with different concentrations of aucubin in the presence or absence of MNU (100 μg/mL) and cultured for 24 hours. Cell viability was then examined using a cell proliferation assay reagent (MTS assay kit, Promega Corporation, Madison, WI, USA).
Series [2] deals with N-methyl-N-nitrosourea (MNU)-induced photoreceptor cell degeneration mouse. Nature of the series: Electroretinogram (ERG) in MNU-induced photoreceptor cell degeneration mouse. The settings on record: MNU 60 mg/kg intraperitoneally, mice. The class given is in vivo, C57BL/6 mice. How it is done:
(§1) Six-week-old male C57BL/6 mice were purchased from Orient (Seongnam, Korea) and used after acclimatization for 1 week. N-methyl-N-nitrosourea (MNU, Sigma, USA) was prepared to a concentration of 1% in 0.05% acetic acid solution to induce damage and degeneration of photoreceptor cells among the morphologic changes in retinal tissue seen in macular degeneration, and 7-week-old male C57BL/6 mice were administered 1% MNU solution intraperitoneally at 60 mg/kg per animal. In the normal group, only an equivalent amount of 0.05% acetic acid was administered intraperitoneally. Aucubin was prepared by dissolving in sterile tertiary distilled water to a concentration of 15 mg/kg/day and administered orally once daily for 7 days starting on the same day as MNU administration. An electroretinogram (ERG) is a record of the electrical signals generated by the optic nerve in response to light and is used as an indicator of retinal damage or disease. The inventors measured the electroretinogram. […] After the pupils were dilated, an appropriate amount of 1% methylcellulose was applied to the eyes while maintaining body temperature, and a gold wire loop recording electrode was grounded to the cornea, a reference electrode was placed on the cheek area, and a ground electrode was grounded to the tail, and the ERG was measured using a Retiport (Roland consult, Germany). […]

The test system is the same in series [3]. Nature of the series: Histopathology (H&E), outer nuclear layer thickness of retinal tissue. The class given is in vivo, C57BL/6 mice. To be noted: aucubin 15 mg/kg/day orally for 7 days; MNU 60 mg/kg intraperitoneally. How it is done:
as §1, with “Aucubin was prepared by dissolving in sterile tertiary distilled water to a concentration of 15 mg/kg/day and administered orally once daily for 7 days starting on the same day as MNU administration. An electroretinogram (ERG) is a record of the electrical signals generated by the optic nerve in response to light and is used as an indicator of retinal damage or disease.” left out
After the end of study drug (aucubin) administration, necropsy was performed and the eyes were enucleated, fixed in 10% neutralized formalin for 1 day, and embedded in paraffin to prepare slide sections. […] Photoreceptor cell damage & deformation was assessed by measuring the change in thickness of the outer nuclear layer (ONL) of retinal tissue. […]

Series [4] concerns primary cultured retinal cells. Description: Apoptosis (TUNEL staining) in primary cultured retinal cells. The class given is cell-based, C57BL/6 mice. The settings on record: aucubin in presence of MNU 100 μg/mL, 24 hours. How it is done:
Cells were resuspended in the above medium without DNase. […] MNU treatment was cytotoxic in retinal cells. […] Apoptotic cells were measured by TUNEL staining.

The subject of series [5] is N-methyl-N-nitrosourea (MNU)-induced photoreceptor cell degeneration mouse. Nature of the series: TUNEL staining of retinal sections (anti-apoptotic effect). The class given is in vivo, C57BL/6 mice. The settings on record: aucubin 15 mg/kg/day orally for 7 days; versus MNU-treated group. How it is done: as §1, with “An electroretinogram (ERG) is a record of the electrical signals generated by the optic nerve in response to light and is used as an indicator of retinal damage or disease.” left out
Retinal sections were made 4 μm thick. […] In the MNU-treated group, a number of apoptotic cells were observed, but these were mainly detected in the outer nuclear layer.

The test system is the same in series [6]. Nature of the series: 8-OHdG immunohistochemical staining of retinal sections (antioxidant effect). The class given is in vivo, C57BL/6 mice. To be noted: aucubin 15 mg/kg/day orally for 7 days; compared to the MNU-treated group. How it is done:
as §1, with “Aucubin was prepared by dissolving in sterile tertiary distilled water to a concentration of 15 mg/kg/day and administered orally once daily for 7 days starting on the same day as MNU administration. An electroretinogram (ERG) is a record of the electrical signals generated by the optic nerve in response to light and is used as an indicator of retinal damage or disease.” left out
The formation of 8-hydroxydeoxyguanosine (8-OHdG) induced by the oxidation of guanine is a well-known marker for oxidative DNA damage. […] The Invision kit (DAKO, Carpinteria, CA, USA) detected signals visualized with aminoethylcarbazole. […]

The subject of series [7] is primary cultured retinal cells. Nature of the series: Oxidative stress (DCFH fluorescent probe) in primary cultured retinal cells. The class given is cell-based, C57BL/6 mice. The settings on record: aucubin in presence of MNU 100 μg/mL, 24 hours.

Consider `CN(N=O)C(N)=O` [MNU, N-methyl-N-nitrosourea], for which the “cell viability compared to control cells” value in series [1] (100 μg/ml MNU alone) was “approximately 70%”. In series [2], the “reduction of a-wave amplitude” value is recorded as 78% and the “reduction of b-wave amplitude” value was found to be 63%.

Regarding `OCC1=C[C@@H](O)[C@@H]2C=CO[C@@H](O[C@@H]3O[C@H](CO)[C@@H](O)[C@H](O)[C@H]3O)[C@H]12` [aucubin], the “reduction of photoreceptor cell loss (ONL thickness)” value in series [3] is 9.8%+2.9%. The “apoptotic cells (TUNEL staining)” value in series [4] was “significantly decreased”. The “photoreceptor cell death (TUNEL-positive apoptotic cells) in retina” value in series [5] was “significantly prevented this cell death”. Also, the “8-OHdG levels (oxidative DNA damage) in retina” value in series [6] is listed as “significantly reduced”. The “cell viability in presence of MNU” value in series [1] (various concentrations of aucubin, MNU 100 μg/mL) is listed as “cell viability was restored in a dose-dependent manner”. Also, the “oxidative stress (DCFH dye)” value in series [7] is reported as “significantly decreased”.

Source of the values: patent US20240299433A1, “PHARMACEUTICAL COMPOSITION CONTAINING AUCUBIN FOR PREVENTING OR TREATING MACULAR DEGENERATION” (INDUSTRIAL COOPERATION FOUNDATION JEONBUK NATIONAL …, priority 2019, published 2024).
